Measured values reported in the supplement of paper PMC11208160.

Assay: recombinant UMI read abundance after kanamycin selection (control-corrected) (log10(CPM+1)); higher = more efficient recombination; extreme values may be limits of the assay; sequences stand for … in AGTGCAGAGAAAATCGGCCAGTTTTCTCTGCCTGCAGTCCGCATGCCGTGGGACCCCTTGGGTTCTAACCTGTTGCCTAGATTTATGCAGCGGACTGCCTTTCTCCCAAAGTGATAAACCGG…AGGTTGGTTTCACT; site = the 11-nt donor
Summary of the method: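 Each donor and donor-binding-loop pair was tracked by a 12-nt UMI on a plasmid carrying a promoterless kanamycin gene. With a second plasmid supplying a fixed target and T7-inducible IS621 bridge recombinase, the pool was plated in Escherichia coli on IPTG (0.07 mM) plus kanamycin or unselected. Sequencing of recombinant UMIs across the donor–target junction gave counts expressed as log10(CPM+1) after replicate averaging and control-derived scaling.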
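Further: IS621 bridge recombinase in Escherichia coli cells against a fixed T5 target plasmid.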

Going from “TAAGGTCCATGGACCGGTTTTCCCGGTAATCCGTATTTGTA (site TAATGTCCTTA)” to “TAAGGTGCATGGACCGGTTTTCCCGGTAATCCGTATTTGTA (site TAAGGTGCTTA)”, the “recombinant UMI read abundance (log10)” value rises from 0.00238 to 2.58.

“TAAGTCACATGGACCGGTTTTCCCGGTAATCCGTATTTGGG (site AAAGTCACTCC)” and “TAAGTCACATGGACCGGTTTTCCCGGTAATCCGTATTTGGG (site CAAGTCACTCC)” are within 0.2 log units of each other in “recombinant UMI read abundance (log10)” value: 0.0244 for the first, 0.0119 for the second.

“TAAGTCACATGGACCGGTTTTCCCGGTAATCCGTATTTGGG (site GAAGTCACTCC)” and “TAAGTCACATGGACCGGTTTTCCCGGTAATCCGTATTTGGG (site TAAGTCACTCC)” are within 0.2 log units of each other in “recombinant UMI read abundance (log10)” value: 0.00751 for the first, 0.00997 for the second.

Going from “TAAGTGCCATGGACCGGTTTTCCCGGTAATCCGTATTTGAC (site TAAGTGCCTGT)” to “TAATATCCATGGACCGGTTTTCCCGGTAATCCGTATTTGTC (site TAATATCCTGA)”, the “recombinant UMI read abundance (log10)” value falls from 0.999 to 0.252.

Compared with “TAATGAGCATGGACCGGTTTTCCCGGTAATCCGTATTTGGC (site TAATGAGCTAC)”, “TAATGAGCATGGACCGGTTTTCCCGGTAATCCGTATTTGGC (site TAATGAGCTCC)” is lower in “recombinant UMI read abundance (log10)” value: 0.253 for the first, 0.0259 for the second.

Compared with “TAATGAGCATGGACCGGTTTTCCCGGTAATCCGTATTTGGC (site TAATGAGCTGC)”, “TAATGAGCATGGACCGGTTTTCCCGGTAATCCGTATTTGGC (site TAATGAGCTTC)” is lower in “recombinant UMI read abundance (log10)” value: 2.42 for the first, 0.585 for the second.

“TAATGGCCATGGACCGGTTTTCCCGGTAATCCGTATTTGAT (site TAATGGCCTAT)” and “TACAAACCATGGACCGGTTTTCCCGGTAATCCGTATTTGGT (site AACAAACCTAC)” are within 0.2 log units of each other in “recombinant UMI read abundance (log10)” value: 0.00507 for the first, 0 for the second.

“TACAAACCATGGACCGGTTTTCCCGGTAATCCGTATTTGGT (site CACAAACCTAC)” and “TACAAACCATGGACCGGTTTTCCCGGTAATCCGTATTTGGT (site GACAAACCTAC)” are within 0.2 log units of each other in “recombinant UMI read abundance (log10)” value: 0.0034 for the first, 0 for the second.

“TACAAACCATGGACCGGTTTTCCCGGTAATCCGTATTTGGT (site TACAAACCTAC)” and “TACAATTCATGGACCGGTTTTCCCGGTAATCCGTATTTGCC (site TACAATTCTGG)” are within 0.2 log units of each other in “recombinant UMI read abundance (log10)” value: 0.00495 for the first, 0.00632 for the second.

Going from “TACAATTCATGGACCGGTTTTCCCGGTAATCCGTATTTGCC (site TCCAATTCTGG)” to “TACAATTCATGGACCGGTTTTCCCGGTAATCCGTATTTGCC (site TGCAATTCTGG)”, the “recombinant UMI read abundance (log10)” value rises from 0 to 0.434.

First: TACAATTCATGGACCGGTTTTCCCGGTAATCCGTATTTGCC (site TTCAATTCTGG)
Second: TACAGCGCATGGACCGGTTTTCCCGGTAATCCGTATTTGGC (site TACAGCGCTGC)
The “recombinant UMI read abundance (log10)” value of the first is lower: 0 for the first, 2.37 for the second.

First: TACAGTACATGGACCGGTTTTCCCGGTAATCCGTATTTGGT (site TACAGTACTAC)
Second: TACAGTCCATGGACCGGTTTTCCCGGTAATCCGTATTTGCG (site TACAGTCCTCG)
The “recombinant UMI read abundance (log10)” value of the first is higher: 0.439 for the first, 0.004 for the second.

Going from “TACATAGCATGGACCGGTTTTCCCGGTAATCCGTATTTGGG (site TACATAGCTCC)” to “TACATGGCATGGACCGGTTTTCCCGGTAATCCGTATTTGCT (site TACATGGCTAG)”, the “recombinant UMI read abundance (log10)” value rises from 0.013 to 1.32.

First: TACCACACATGGACCGGTTTTCCCGGTAATCCGTATTTGTC (site TACCACACTGA)
Second: TACCTAGCATGGACCGGTTTTCCCGGTAATCCGTATTTGAA (site TAACTAGCTTT)
The “recombinant UMI read abundance (log10)” value of the first is higher: 2.09 for the first, 0 for the second.

“TACCTAGCATGGACCGGTTTTCCCGGTAATCCGTATTTGAA (site TACCTAGCTTT)” and “TACCTAGCATGGACCGGTTTTCCCGGTAATCCGTATTTGAA (site TAGCTAGCTTT)” are within 0.2 log units of each other in “recombinant UMI read abundance (log10)” value: 0.00543 for the first, 0 for the second.

“TACCTAGCATGGACCGGTTTTCCCGGTAATCCGTATTTGAA (site TATCTAGCTTT)” and “TACCTGACATGGACCGGTTTTCCCGGTAATCCGTATTTGTG (site TACCTGACTCA)” are within 0.2 log units of each other in “recombinant UMI read abundance (log10)” value: 0.0166 for the first, 0.0209 for the second.

Going from “TACGACGCATGGACCGGTTTTCCCGGTAATCCGTATTTGGG (site TACGACGCTCC)” to “TACGGAACATGGACCGGTTTTCCCGGTAATCCGTATTTGCT (site TACGGAACTAG)”, the “recombinant UMI read abundance (log10)” value rises from 0.012 to 0.249.

“TACGGACCATGGACCGGTTTTCCCGGTAATCCGTATTTGTC (site TACGGACCTGA)” and “TACGGCCCATGGACCGGTTTTCCCGGTAATCCGTATTTGCG (site TACGGCCCTCG)” are within 0.2 log units of each other in “recombinant UMI read abundance (log10)” value: 0 for the first, 0.024 for the second.

Compared with “TACGTCACATGGACCGGTTTTCCCGGTAATCCGTATTTGGG (site TACGTCACTCC)”, “TACGTGACATGGACCGGTTTTCCCGGTAATCCGTATTTGCA (site TACGTGACTTG)” is higher in “recombinant UMI read abundance (log10)” value: 0.0239 for the first, 2.29 for the second.

Going from “TACTAGACATGGACCGGTTTTCCCGGTAATCCGTATTTGCT (site TACTAGACTAG)” to “TACTAGACATGGACCGGTTTTCCCGGTAATCCGTATTTGCT (site TACTCGACTAG)”, the “recombinant UMI read abundance (log10)” value falls from 1.84 to 0.00336.

“TACTAGACATGGACCGGTTTTCCCGGTAATCCGTATTTGCT (site TACTGGACTAG)” and “TACTAGACATGGACCGGTTTTCCCGGTAATCCGTATTTGCT (site TACTTGACTAG)” are the same in “recombinant UMI read abundance (log10)” value: 0 for the first, 0 for the second.

Compared with “TACTAGTCATGGACCGGTTTTCCCGGTAATCCGTATTTGGA (site TACTAGTCTTC)”, “TACTCCTCATGGACCGGTTTTCCCGGTAATCCGTATTTGCC (site AACTCCTCTGG)” is lower in “recombinant UMI read abundance (log10)” value: 1.59 for the first, 0.934 for the second.

First: TACTCCTCATGGACCGGTTTTCCCGGTAATCCGTATTTGCC (site CACTCCTCTGG)
Second: TACTCCTCATGGACCGGTTTTCCCGGTAATCCGTATTTGCC (site GACTCCTCTGG)
The “recombinant UMI read abundance (log10)” value of the first is higher: 1.86 for the first, 0.715 for the second.

Compared with “TACTCCTCATGGACCGGTTTTCCCGGTAATCCGTATTTGCC (site TACTCCTCTGG)”, “TACTCGACATGGACCGGTTTTCCCGGTAATCCGTATTTGCT (site TACTAGACTAG)” is lower in “recombinant UMI read abundance (log10)” value: 2.63 for the first, 0.956 for the second.

First: TACTCGACATGGACCGGTTTTCCCGGTAATCCGTATTTGCT (site TACTCGACTAG)
Second: TACTCGACATGGACCGGTTTTCCCGGTAATCCGTATTTGCT (site TACTGGACTAG)
The “recombinant UMI read abundance (log10)” value of the first is higher: 1.49 for the first, 0.00865 for the second.

Compared with “TACTCGACATGGACCGGTTTTCCCGGTAATCCGTATTTGCT (site TACTTGACTAG)”, “TACTCGACATGGACCGGTTTTCCCGGTAATCCGTATTTGTC (site TACTCGACTGA)” is lower in “recombinant UMI read abundance (log10)” value: 1.01 for the first, 0.0119 for the second.

Going from “TACTGCGCATGGACCGGTTTTCCCGGTAATCCGTATTTGAC (site TACTGCGCTGT)” to “TACTGGTCATGGACCGGTTTTCCCGGTAATCCGTATTTGAC (site TACTGGTCTGT)”, the “recombinant UMI read abundance (log10)” value falls from 1.9 to 1.07.

Going from “TACTTCGCATGGACCGGTTTTCCCGGTAATCCGTATTTGAT (site TACTTCGCTAT)” to “TACTTCTCATGGACCGGTTTTCCCGGTAATCCGTATTTGTT (site TACTTCTCTAA)”, the “recombinant UMI read abundance (log10)” value rises from 0.583 to 1.35.

“TACTTGACATGGACCGGTTTTCCCGGTAATCCGTATTTGAT (site TACTTGACTAA)” and “TACTTGACATGGACCGGTTTTCCCGGTAATCCGTATTTGAT (site TACTTGACTAC)” are within 0.2 log units of each other in “recombinant UMI read abundance (log10)” value: 0.0207 for the first, 0.015 for the second.

First: TACTTGACATGGACCGGTTTTCCCGGTAATCCGTATTTGAT (site TACTTGACTAG)
Second: TACTTGACATGGACCGGTTTTCCCGGTAATCCGTATTTGAT (site TACTTGACTAT)
The “recombinant UMI read abundance (log10)” value of the first is lower: 0.00211 for the first, 0.476 for the second.

First: TACTTGACATGGACCGGTTTTCCCGGTAATCCGTATTTGCG (site TACTTGACTAG)
Second: TACTTGACATGGACCGGTTTTCCCGGTAATCCGTATTTGCG (site TACTTGACTCG)
The “recombinant UMI read abundance (log10)” value of the first is lower: 0.00183 for the first, 0.524 for the second.

“TACTTGACATGGACCGGTTTTCCCGGTAATCCGTATTTGCG (site TACTTGACTGG)” and “TACTTGACATGGACCGGTTTTCCCGGTAATCCGTATTTGCG (site TACTTGACTTG)” are the same in “recombinant UMI read abundance (log10)” value: 0 for the first, 0 for the second.

“TACTTGACATGGACCGGTTTTCCCGGTAATCCGTATTTGTT (site TACTTGACTAA)” and “TACTTGACATGGACCGGTTTTCCCGGTAATCCGTATTTGTT (site TACTTGACTAC)” are within 0.2 log units of each other in “recombinant UMI read abundance (log10)” value: 0.00709 for the first, 0.0106 for the second.

“TACTTGACATGGACCGGTTTTCCCGGTAATCCGTATTTGTT (site TACTTGACTAG)” and “TACTTGACATGGACCGGTTTTCCCGGTAATCCGTATTTGTT (site TACTTGACTAT)” are within 0.2 log units of each other in “recombinant UMI read abundance (log10)” value: 0.00636 for the first, 0.00466 for the second.

“TACTTGGCATGGACCGGTTTTCCCGGTAATCCGTATTTGCT (site TACTTGACTAG)” and “TACTTGGCATGGACCGGTTTTCCCGGTAATCCGTATTTGCT (site TACTTGCCTAG)” are within 0.2 log units of each other in “recombinant UMI read abundance (log10)” value: 0.00409 for the first, 0.00558 for the second.

“TACTTGGCATGGACCGGTTTTCCCGGTAATCCGTATTTGCT (site TACTTGGCTAG)” and “TACTTGGCATGGACCGGTTTTCCCGGTAATCCGTATTTGCT (site TACTTGTCTAG)” are within 0.2 log units of each other in “recombinant UMI read abundance (log10)” value: 0.00377 for the first, 0 for the second.

“TACTTGGCATGGACCGGTTTTCCCGGTAATCCGTATTTGGA (site AACTTGGCTTC)” and “TACTTGGCATGGACCGGTTTTCCCGGTAATCCGTATTTGGA (site CACTTGGCTTC)” are within 0.2 log units of each other in “recombinant UMI read abundance (log10)” value: 0.0162 for the first, 0.00371 for the second.

For “TACTTGGCATGGACCGGTTTTCCCGGTAATCCGTATTTGGA (site GACTTGGCTTC)”, the “recombinant UMI read abundance (log10)” value was 0.00882.
